The values that follow come from patent publication US20110188043A1, “METHOD AND APPARATUS FOR MONITORING PROCESSES IN LIVING CELLS” (Yissum, Research Development Company of The Hebrew …, priority 2007, published 2011).

One test deals with Melanoma cells. Put plainly: Time-lapse confocal imaging of fluorescently tagged-Tfn uptake. The class given is cell-based, human. The procedure: Melanoma cells were cultured to ˜50% confluence on glass bottom culture dishes (35 mm dish, 14 mm Microwell; MatTek, Co., MA, USA). Cells were first exposed to growth medium lacking serum for 3 hrs prior to the experiment, and then washed three times with internalization buffer (150 mM NaCl, 20 mM Hepes, pH 7.4, 1 mM CaCl2, 5 mM KCl, 1 mM MgCl2, 10 mM Glucose). Following the last wash, internalization buffer containing 0.1 μM sulforhodamine green (SRG) (Biotium, Hayward, Calif.) was added to the medium. Cells were imaged (FIG. 10A—confocal imaging of live cells performed simultaneously in the green and red channels, about 30 sec (designated time 0) after cell exposure to the ligand) with an Olympus FV-1000 confocal microscope equipped with an on-scope incubator (Life Image Services, Bazel, Switzerland), which controls temperature and humidity, and provides an atmosphere of 5% CO2. A 60×/NA=1.35 oil immersion objective was used. […] First, one plane of focus was acquired, and Rhodamine Red'-holo Tfn (5 μg/ml; Jackson ImmunoResearch) was introduced into the imaging buffer. Confocal images of both the SRG (Ex: 514 nm; Em: 535-565 nm) and Rhodamine Red-holo-Tfn (Ex: 543 nm; Em: 560-660 nm) were acquired from the same section every 10 or 20 sec. A similar protocol was used for Lissamine Rhodamine-apo-Tfn, except that the SRG was imaged using 488-nm excitation and a 505-525-nm emission filter. The FV1000 was equipped with the ZDC (Zero Drift Controller) option, to maintain the same focus plane throughout the entire period of imaging.
The images were processed using ImageJ [Rasband, W. S., ImageJ, U.S. National Institutes of Health, Bethesda, Md., USA, http://rsb.info.nih.gov/ij/, 1997-2007] to determine fluorescence levels within cells as follows: First the despeckle filter (essentially a median filter with a 3×3 kernel) was applied to remove point noise and the SRG image was used to determine the cell boundaries; then, the average fluorescence intensity inside the cells (F(t)intracellular) was divided by the average fluorescence intensity in a region of interest outside the cells (<F(t)>extracellular). This procedure was adopted based on the assumption that there is insignificant depletion of labeled Tfn in the medium, so that the fluorescence in the medium should remain constant.
Then, the fluorescence levels within the bounded area were determined in the red channels for each time frame. Background fluorescence levels measured before the addition of Rhodamine Red-Tfn were subtracted from values measured in the same channel during ligand introduction.

In test [1] the test system is Human melanoma (MEL 1106) cells. As to the kind of experiment: FTIR-SPR measurements of Tfn-induced SPR signal shifts in a cell monolayer on an Au-coated ZnS prism. The class given is cell-based. The following applies: for SPR signal shift on cell exposure to ligand: 5 μg/ml of Tfn, cells on Au-coated ZnS prism; for change in the average refraction index of cells Δn: calculated as Δn=ΔR/S at 4425 cm^−1. As to the method: Surface plasmon (SP) was excited using Kretchmann's geometry as illustrated in FIG. 3A employing the Bruker FTIR spectrometer (Equinox 55—Bruker Optik GmbH, Ettlingen, Germany) equipped with a KBr beam splitter as mid-IR source, and a right-angle ZnS prism having a 20×40 mm base (ISP Optics, Inc., Irvington, N.Y, US) coated with an 18-nm-thick gold film (electron-beam evaporation). Cells were cultured on the gold surface, as described below. The prism and cells were attached to a flow chamber mounted on a goniometer, in such way that the cells on the gold-coated base faced the flow chamber's volume (0.5 ml). The flow chamber was filled with cell culture medium, resulting in direct contact between the medium and the gold layer, or cells cultured on that layer. The medium was passed through the chamber at a constant flow rate (5 μl/min) during the entire experiment, using a motorized bee syringe pump equipped with a variable speed controller. The temperature of the medium flowing through the chamber was controlled (±0.1° C.). The infrared light from the output window of the FTIR instrument passed through a collimator, consisting of a 1-mm diameter pinhole mounted between two gold coated off-axis parabolic mirrors, m1 and m2, with focal lengths of about 76.2 mm and 25.4 mm, respectively, along with a grid polarizer and an iris. The collimated beam (˜4 mm in diameter) was reflected from the ZnS prism and focused by an additional parabolic mirror, m3, onto a liquid-nitrogen-cooled MCT (HgCdTe) detector, mounted on the goniometer.
Human melanoma (MEL 1106) cells were cultured on a 10-cm dish in Dolbecco's modified Eagle's medium (D-MEM, Biological Industries, Israel), supplemented with 4.5 g/l D-glucose, 10% antibiotics, and 10% fetal calf serum, as previously described for HeLa cells [Ziblat et al., 2006]. These cells were used in the SPR experiments, and their culture on Au coated prisms was performed as follows: upon reaching 70% confluence, cells were detached from the dish by trypsin C (0.05% Trypsin/EDTA in Puck's saline A; Biological Industries, Israel) treatment, and brought to a cell density of about 1.8×10^5 cells/ml in complete growth medium. With reference to FIG. 7, three milliliters of cell suspension 29 were seeded on top of the Au-coated ZnS prism 27 mounted onto a home-made polycarbonate holder, such that the cell suspension 29 covered the entire prism's base 28. Cells were allowed to attach for at least 3 hrs in a CO2 incubator (5% CO2, 37° C., 90% humidity). Thereafter, growth medium (5 ml) was added and the prism 27 was placed in a CO2 incubator for an additional 2-3 days, until a uniform and nearly confluent monolayer of cells (above 70%; ˜30 cells per 1000 μm^2) covered the Au-surface.
In the initial phase of each experiment, cells cultured on an Au-coated prism were exposed to serum-free DMEM for 3 hours at […] for depleting the cells from internal pools of Tfn contributed by the serum. The prism with the cultured cells was then attached to the flow chamber, which was rapidly filled with pre-warmed (37° C.) minimal essential medium (MEM) containing Hank's salts (GIBCO), 20 mM Hepes, pH 7.2, and 5 μg/ml BSA (MEM-BSA). The temperature in the flow chamber was adjusted to 37° C.±0.1° C., unless otherwise indicated. Thereafter, the angle of incidence in the SPR configuration was set to θ=35.5°. […] These parameters were optimal, allowing maximal sensitivity (S=ΔR/Δn), and reasonable SP penetration depth/propagation length.
The reflectivity of the s-polarized beam was used as a background for subsequent measurements. The SPR signal is the ratio of the reflectivities obtained for the p-polarized and s-polarized beams. The FTIR-SPR set-up of the invention repeatedly measured the reflectivity spectra. This was done every 25 seconds with a 4-cm^−1 wavenumber resolution and with 16-scan averaging. The SPR measurements were carried out continuously for 15-20 minutes, until a stable SPR signal was recorded. […]

The test system of the next test is Melanoma 1106 cell. Put plainly: FTIR-SPR of ferrotransferrin uptake with long-wavelength surface plasmon. The class given is cell-based, human. The following applies: λ=2.54 μm. The text has this:
The FTIR-SPR technique of the invention was applied to study transferrin-induced clathrin-mediated endocytic processes that introduce Fe ions into the cell.
The same process was studied using a long-wavelength surface plasmon at λ=2.54 μm. Its penetration depth, δzd=1.2 μm (FIG. 20), is deep enough to penetrate the cells, although it senses mostly the cell periphery. […] The kinetics of the SPR reflectivity closely follows the fluorescence kinetics in the cell periphery (FIG. 27A), as expected. […] The obvious advantage of the SPR technique is that it is label-free. […] This rules out the possibility that the SPR shift results from accumulation of organic molecules in the cell (this would increase the refractive index). […] This is consistent with the biological picture of endocytosis that includes transferrin-induced vesicular transport.

Test [2] concerns human red blood cells (RBCs). As to the kind of experiment: FTIR-SPR measurement of glucose uptake by erythrocyte suspension. The test is classed as cell-based. The following applies: λ=4 μm, 22° C., erythrocyte suspension in PBS. The procedure: In the following section measurements of glucose uptake by erythrocyte suspension in the PBS medium are described. Briefly, fresh human red blood cells (RBCs) were washed four times in PBS by centrifugation. The supernatant and buffy coat cells were discarded and RBCs were resuspended in glucose-free PBS to yield ce=5% v/v. For complete glucose depletion, cells were incubated for 60 min at 22° C. in PBS. Then, RBCs were centrifuged and resuspended in fresh PBS containing the required concentrations of D-glucose supplemented with L-glucose, to keep the total glucose concentration (osmolarity) equal to 20 mM. The SPR measurements were performed at 22° C. to slow down cellular glycolysis. The measurements were performed using a ZnS prism coated with a 12-nm thick Au film. […] Although the sensitivity at this wavelength is low (FIG. 19A), the use of such a long wavelength here is mandatory in order to sense the processes inside erythrocytes. The average distance between the erythrocytes is Dece^1/3=17 μm. The surface plasmon propagation length, Lx=30 μm (FIG. 21), exceeds the distance between erythrocytes.
In general terms: In SPR one partner is held on a chip, and binding of the other changes the refractive index at the surface.

In the next test the test system is HeLa cells. As to the kind of experiment: FTIR-SPR of cholesterol enrichment/depletion of the cell membrane. The test is classed as cell-based, human. The conditions noted are these: λ=1.08 μm, 37° C.; mβCD-chol at t=0, mβCD at t=15 for 3 min. The text has this:
The penetration of cholesterol into the plasma membrane of the HeLa cells was studied with the FTIR-SPR technique of the invention (similar studies using SPR in the visible range were reported by Besenicar et al., [Biochimica et Biophysica Acta-Biomembranes, 177, 175 (2008).]. It is well-known that cholesterol enters mostly into the plasma membrane rather than into cytoplasm. Therefore, to achieve high sensitivity to membrane-related events, the near-infrared wavelength range was chosen, λsp=1÷1:08 μm, characterized by a relatively low SPR penetration depth.
The HeLa cells were grown on an SF-11 glass prism coated with 35-nm-thick gold film. The prism with the cells was mounted into a flow chamber and was equilibrated in growth medium for 5-7 minutes at 37° C. Then 10 mM of mfβCD-chol (methyl-beta-cyclodextrin loaded with cholesterol) was added, which is known to enrich the cells by cholesterol. The FTIR-SPR spectra was measured before and after adding the drugs. […] This corresponds to a refractive index increase because cholesterol has a higher refractive index than water. In contrast, when a similar chemical, mβCD, which is not loaded with cholesterol, was added (at t=15 for 3 min) to a growth solution the SPR is blue-shifted, which corresponds to a refractive index decrease. […]

As for “Rhodamine Red-holo-Tfn: Rhodamine Red tagged holo-Tfn (Jackson ImmunoResearch) used for fluorescence imaging [reference compound]”, in the test on Melanoma cells (lower temperatures (30° C. vs 37° C.)), the “ligand internalization rates (fluorescence)” value is given as “reduced ligand internalization rates”.
For the compound “holo-Tfn: Human apo-Tfn (transferrin) loaded with iron, which converts it to holo-Tfn”, the “SPR signal shift on cell exposure to ligand” value in test [1] (37° C.) is “time-dependent shifts of the SPR minimum towards shorter wavelengths”. Also, the “Tfn-induced SPR shifts” value in test [1] (19° C.) is given as “diminished SPR shifts”; in test [1] (30° C.), “larger SPR shifts”; in test [1] (37° C.) it was “maximal shifts”. Also, the “change in the average refraction index of cells Δn” value in test [1] was −4*10^−4. In test [1] (holo-Tfn, 37° C.), the “time over which the SPR signal increased before levelling off” value is 2 to 3 min. In addition, the “SPR signal shift on removal (washout) with plain MEM/BSA” value in test [1] is given as “red-shift in the SPR signal”. Also, the “SPR shift upon introduction into the solution” value in the test on Melanoma 1106 cell was “blue-shifted”. Further, the “cell fluorescence intensity over time” value with Melanoma cells (holo-Ft tagged with Rhodamine Red, Melanoma 1106 cell) was “fluorescence intensity increases and then achieves saturation”.
Turning to `CN(C)CCCN1c2ccccc2Sc2ccc(Cl)cc21` [CPZ, Chlorpromazine, reference compound], the “SPR signal shift immediately after cell exposure to the drug” value in test [1] (100 μM CPZ in MEM/BSA, 37° C.) is “sizeable shift of the SPR signal towards shorter wavelengths”. In addition, in test [1] (100 μM CPZ, then approximately 90 min washout, compared with untreated cells), the “effect on holo-Tfn-induced SPR signal shifts” value is “diminished SPR signal shifts”. Besides, the “blue shift in the SPR signal relative to that induced by Tfn” value in test [1] (CPZ treatment per se) is 10 times. The “washout time after which a steady SPR signal was measured” value in test [1] (CPZ washout with plain MEM/BSA) was approximately 30 min. Moreover, the “SPR signal shift on removal (washout) with plain MEM/BSA” value in test [1] is “ongoing decrease”. Besides, the “effect on rate of holo-Tfn uptake into the cells (fluorescence)” value in the test on Melanoma cells (CPZ treatment followed by 90 min of drug washout, 37° C.) is “significantly decreased the rate of holo-Tfn uptake”.
With “apo-Tfn: Human apo-Tfn dialyzed against sodium citrate to remove possible iron traces; tagged with Lissamine Rhodamine for imaging”, in test [1] (37° C.), the “SPR signal shift on cell exposure to ligand” value was “small SPR signal shifts”. Moreover, the “change in the average refraction index of cells Δn” value in test [1] is “smaller than −1*10^−4”. In addition, in the test with Melanoma cells (37° C.), the “accumulation of tagged Tfn fluorescence within the cells” value is recorded as “accumulated within the cells at slower rates”.
Turning to `O=C[C@H](O)[C@@H](O)[C@H](O)[C@H](O)CO` [D-glucose], the “reflectivity in the SPR regime upon addition” value in test [2] is “reflectivity in the SPR regime rapidly increases with time, until saturation is reached”.
For “methyl-β-cyclodextrin [mβCD, reference compound]”, in test [1] (mβCD 3 mM for 15 min at 37° C., rinsed, then holo-Tfn), the “effect on holo-Tfn-induced SPR signal shift (cholesterol depletion / replenishment)” value is listed as “diminished compared with untreated cells”. Further, the “SPR shift after addition to growth medium” value in the test with HeLa cells is reported as “blue-shifted”.
